Test results as given in ChEMBL document CHEMBL3351420, “Liver X receptor (LXR) partial agonists: biaryl pyrazoles and imidazoles displaying a preference for LXRβ” (Bioorg Med Chem Lett, 2015).

Molecular target: Retinoic acid receptor RXR-alpha/oxysterols receptor LXR-beta (Homo sapiens, UniProt P55055)
Experiment: Binding affinity to LXRbeta-RXRalpha heterodimer (unknown origin) expressed in insect cells by scintillation proximity assay
Settings: not given

Retinoic acid receptor RXR-alpha/oxysterols receptor LXR-beta, sequence (P19793 whole entry, one chain of several): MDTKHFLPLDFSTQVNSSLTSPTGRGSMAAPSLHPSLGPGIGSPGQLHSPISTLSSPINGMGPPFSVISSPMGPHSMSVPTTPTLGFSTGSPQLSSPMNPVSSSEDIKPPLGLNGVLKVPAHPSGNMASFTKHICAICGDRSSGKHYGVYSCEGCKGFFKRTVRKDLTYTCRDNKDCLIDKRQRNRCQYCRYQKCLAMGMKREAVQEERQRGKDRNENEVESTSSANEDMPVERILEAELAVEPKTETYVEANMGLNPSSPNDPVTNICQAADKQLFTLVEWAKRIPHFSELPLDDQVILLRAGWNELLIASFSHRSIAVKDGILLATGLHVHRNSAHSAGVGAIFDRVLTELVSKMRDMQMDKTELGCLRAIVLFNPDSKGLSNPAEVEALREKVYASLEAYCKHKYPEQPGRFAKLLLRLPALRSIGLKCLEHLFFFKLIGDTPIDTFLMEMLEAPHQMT

CS(=O)(=O)c1cccc(-c2ccc(-c3cc(C(F)(F)F)nn3-c3ccccc3Cl)cc2)c1 and CS(=O)(=O)c1cccc(-c2ccc(-n3cc(C(F)(F)F)nc3-c3ccccc3Cl)cc2)c1 are within 1.5-fold of each other in Ki: 13 nM for the first, 11 nM for the second.

First: CC(C)(O)c1cn(-c2ccc(-c3cccc(S(C)(=O)=O)c3)cc2)c(Cc2ccccc2Cl)n1
Second: Cc1cc(CC(=O)O)ccc1-c1ccc(-c2cc(C(F)(F)F)c(C#N)c(=O)n2Cc2ccc(F)cc2F)s1
The Ki of the first is 9-fold lower: 1 nM for the first, 9 nM for the second. The first binds more tightly here.

Molecular target: Liver X receptor (Homo sapiens) (UniProt Q13133+P55055)
Experiment: Transactivation of LXR in human whole blood assessed as induction of ABCA1 after 4 hrs by SYBR-Green quantitative PCR analysis relative to 1-(2,4-difluorobenzyl)-2-oxo-6-(4-phenoxyphenyl)-4-(trifluoromethyl)-1,2-dihydropyridine-3-carbonitrile
Settings: not given

Compared with CS(=O)(=O)c1cccc(-c2ccc(-c3cc(C(F)(F)F)nn3-c3ccccc3Cl)cc2)c1, CC(C)(O)c1cn(-c2ccc(-c3cccc(S(C)(=O)=O)c3)cc2)c(Cc2ccccc2Cl)n1 is higher in Efficacy: 49% for the first, 62% for the second.

Tested on: not listed separately
Experiment: Drug uptake in mouse liver at 30 mg/kg, po measured at 24 hrs post dose
Type: ADME, organism-based
Design: dose 30 mg/kg, route oral
Settings: read-out: Drug uptake

Compared with CS(=O)(=O)c1cccc(-c2ccc(-c3cc(C(F)(F)F)nn3-c3ccccc3Cl)cc2)c1, CS(=O)(=O)c1cccc(-c2ccc(-n3cc(C(F)(F)F)nc3-c3ccccc3Cl)cc2)c1 is 4.1-fold higher in concentration at 24 h: 7800 nM for the first, 32000 nM for the second.

CC(C)(O)c1cn(-c2ccc(-c3cccc(S(C)(=O)=O)c3)cc2)c(Cc2ccccc2Cl)n1 gave a concentration at 24 h of 1500 nM.

Molecular target: T1, Oxysterols receptor LXR-beta (Homo sapiens, UniProt P55055)
T1 sequence (P55055 whole entry): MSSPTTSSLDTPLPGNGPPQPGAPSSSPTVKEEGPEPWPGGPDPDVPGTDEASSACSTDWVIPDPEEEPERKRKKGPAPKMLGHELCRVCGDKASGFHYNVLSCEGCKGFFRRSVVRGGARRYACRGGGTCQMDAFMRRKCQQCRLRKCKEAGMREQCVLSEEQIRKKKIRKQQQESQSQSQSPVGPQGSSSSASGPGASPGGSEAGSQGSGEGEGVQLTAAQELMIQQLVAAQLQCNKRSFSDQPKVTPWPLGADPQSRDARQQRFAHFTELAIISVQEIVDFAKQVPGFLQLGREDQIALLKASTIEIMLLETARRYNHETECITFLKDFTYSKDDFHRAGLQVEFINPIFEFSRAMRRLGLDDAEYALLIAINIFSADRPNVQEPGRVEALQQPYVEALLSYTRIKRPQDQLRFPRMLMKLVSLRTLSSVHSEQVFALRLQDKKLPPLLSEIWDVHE
Experiment: Transactivation of LXRbeta (unknown origin) expressed in CV1 cells by luciferase reporter gene assay
Type: cell-based, CV-1
Settings: not given

CS(=O)(=O)c1cccc(-c2ccc(-c3cc(C(F)(F)F)nn3-c3ccccc3Cl)cc2)c1 and CS(=O)(=O)c1cccc(-c2ccc(-n3cc(C(F)(F)F)nc3-c3ccccc3Cl)cc2)c1 are within 1.5-fold of each other in EC50: 49 nM for the first, 61 nM for the second.

Going from CC(C)(O)c1cn(-c2ccc(-c3cccc(S(C)(=O)=O)c3)cc2)c(Cc2ccccc2Cl)n1 to Cc1cc(CC(=O)O)ccc1-c1ccc(-c2cc(C(F)(F)F)c(C#N)c(=O)n2Cc2ccc(F)cc2F)s1, the EC50 rises from 66 nM to 320 nM (4.8-fold).

Molecular target: T2, Liver X receptor (Homo sapiens, UniProt Q13133+P55055)
T2 sequence (Q13133 whole entry): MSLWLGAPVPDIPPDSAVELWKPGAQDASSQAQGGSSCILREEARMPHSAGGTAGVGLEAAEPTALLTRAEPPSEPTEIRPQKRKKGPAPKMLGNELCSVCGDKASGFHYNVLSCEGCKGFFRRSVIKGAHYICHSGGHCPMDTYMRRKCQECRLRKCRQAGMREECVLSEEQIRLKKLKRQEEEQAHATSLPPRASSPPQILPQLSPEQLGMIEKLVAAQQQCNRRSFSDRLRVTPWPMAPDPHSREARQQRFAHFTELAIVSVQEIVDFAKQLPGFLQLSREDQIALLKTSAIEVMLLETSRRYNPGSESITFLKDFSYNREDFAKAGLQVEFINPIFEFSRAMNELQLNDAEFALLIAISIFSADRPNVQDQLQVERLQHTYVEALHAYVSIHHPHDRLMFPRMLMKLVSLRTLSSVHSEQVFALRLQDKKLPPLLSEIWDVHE
T2 sequence (P55055 whole entry): T1 sequence (P55055 whole entry)
Experiment: Transactivation of LXR (unknown origin) expressed in human HeLa cells by ABCA1 LXREx3 reporter assay
Type: cell-based
Settings: not given

First: CS(=O)(=O)c1cccc(-c2ccc(-c3cc(C(F)(F)F)nn3-c3ccccc3Cl)cc2)c1
Second: CS(=O)(=O)c1cccc(-c2ccc(-n3cc(C(F)(F)F)nc3-c3ccccc3Cl)cc2)c1
The EC50 of the first is 2.6-fold higher: 13 nM for the first, 5 nM for the second.

Going from CC(C)(O)c1cn(-c2ccc(-c3cccc(S(C)(=O)=O)c3)cc2)c(Cc2ccccc2Cl)n1 to Cc1cc(CC(=O)O)ccc1-c1ccc(-c2cc(C(F)(F)F)c(C#N)c(=O)n2Cc2ccc(F)cc2F)s1, the EC50 rises from 12 nM to 40 nM (3.3-fold).

Tested on: not listed separately
Experiment: Plasma concentration in mouse at 30 mg/kg, po measured at 24 hrs post dose
Type: ADME, organism-based
Design: dose 30 mg/kg, route oral
Settings: not given

Going from CS(=O)(=O)c1cccc(-c2ccc(-c3cc(C(F)(F)F)nn3-c3ccccc3Cl)cc2)c1 to CS(=O)(=O)c1cccc(-c2ccc(-n3cc(C(F)(F)F)nc3-c3ccccc3Cl)cc2)c1, the concentration at 24 h rises from 400 nM to 2300 nM (5.8-fold).

Work on CC(C)(O)c1cn(-c2ccc(-c3cccc(S(C)(=O)=O)c3)cc2)c(Cc2ccccc2Cl)n1 yielded a concentration at 24 h of 400 nM.

Molecular target: Retinoic acid receptor RXR-alpha/oxysterols receptor LXR-alpha (Homo sapiens, UniProt Q13133)
Experiment: Binding affinity to LXRalpha-RXRalpha heterodimer (unknown origin) expressed in insect cells by scintillation proximity assay
Settings: not given

Retinoic acid receptor RXR-alpha/oxysterols receptor LXR-alpha, sequence (P19793 whole entry, one chain of several): as the sequence (P19793 whole entry, one chain of several) above

First: CS(=O)(=O)c1cccc(-c2ccc(-c3cc(C(F)(F)F)nn3-c3ccccc3Cl)cc2)c1
Second: CS(=O)(=O)c1cccc(-c2ccc(-n3cc(C(F)(F)F)nc3-c3ccccc3Cl)cc2)c1
The Ki of the first is 3-fold higher: 180 nM for the first, 61 nM for the second.

CC(C)(O)c1cn(-c2ccc(-c3cccc(S(C)(=O)=O)c3)cc2)c(Cc2ccccc2Cl)n1 and Cc1cc(CC(=O)O)ccc1-c1ccc(-c2cc(C(F)(F)F)c(C#N)c(=O)n2Cc2ccc(F)cc2F)s1 are within 1.5-fold of each other in Ki: 25 nM for the first, 36 nM for the second.

Tested on: not listed separately
Experiment: Plasma concentration in mouse at 30 mg/kg, po measured at 4 hrs post dose
Type: ADME, organism-based
Design: dose 30 mg/kg, route oral
Settings: not given

Compared with CS(=O)(=O)c1cccc(-c2ccc(-c3cc(C(F)(F)F)nn3-c3ccccc3Cl)cc2)c1, CS(=O)(=O)c1cccc(-c2ccc(-n3cc(C(F)(F)F)nc3-c3ccccc3Cl)cc2)c1 is 2-fold higher in concentration at 4 h: 600 nM for the first, 1200 nM for the second.

Work on CC(C)(O)c1cn(-c2ccc(-c3cccc(S(C)(=O)=O)c3)cc2)c(Cc2ccccc2Cl)n1 yielded a concentration at 4 h of 1300 nM.

Molecular target: T2, Liver X receptor
Experiment: Transactivation of LXR in human whole blood assessed as induction of ABCA1 after 4 hrs by SYBR-Green quantitative PCR analysis
Settings: not given

First: CS(=O)(=O)c1cccc(-c2ccc(-c3cc(C(F)(F)F)nn3-c3ccccc3Cl)cc2)c1
Second: CC(C)(O)c1cn(-c2ccc(-c3cccc(S(C)(=O)=O)c3)cc2)c(Cc2ccccc2Cl)n1
The EC50 of the first is 6.7-fold lower: 480 nM for the first, 3200 nM for the second. The first is the more potent here.

Tested on: Mus musculus
Experiment: Elevation of hepatic triglyceride in C57BL/6 mouse at 30 mg/kg for 7 days measured 24 hrs post last dose relative to control
Type: ADME, organism-based
Design: dose 30 mg/kg
Settings: in vivo

For Cc1cc(CC(=O)O)ccc1-c1ccc(-c2cc(C(F)(F)F)c(C#N)c(=O)n2Cc2ccc(F)cc2F)s1, the “fold change (FC)” value was 4.8.

Molecular target: T3, Oxysterols receptor LXR-alpha (Homo sapiens, UniProt Q13133)
T3 sequence (Q13133 whole entry): T2 sequence (Q13133 whole entry)
Experiment: Transactivation of LXRalpha (unknown origin) expressed in CV1 cells by luciferase reporter gene assay
Type: cell-based, CV-1
Settings: not given

Compared with CS(=O)(=O)c1cccc(-c2ccc(-c3cc(C(F)(F)F)nn3-c3ccccc3Cl)cc2)c1, CS(=O)(=O)c1cccc(-c2ccc(-n3cc(C(F)(F)F)nc3-c3ccccc3Cl)cc2)c1 is 4.2-fold lower in EC50: 220 nM for the first, 52 nM for the second. The second is the more potent here.

First: CC(C)(O)c1cn(-c2ccc(-c3cccc(S(C)(=O)=O)c3)cc2)c(Cc2ccccc2Cl)n1
Second: Cc1cc(CC(=O)O)ccc1-c1ccc(-c2cc(C(F)(F)F)c(C#N)c(=O)n2Cc2ccc(F)cc2F)s1
The EC50 of the first is 6.7-fold lower: 85 nM for the first, 570 nM for the second. The first is the more potent here.

Tested on: Mus musculus
Experiment: Induction of SREBP1c mRNA in C57BL/6 mouse liver at 30 mg/kg for 7 days measured 24 hrs post last dose relative to control
Type: organism-based
Design: dose 30 mg/kg
Settings: C57BL/6, 24 h, read-out: FC

Work on Cc1cc(CC(=O)O)ccc1-c1ccc(-c2cc(C(F)(F)F)c(C#N)c(=O)n2Cc2ccc(F)cc2F)s1 yielded a fold induction at 30 mg/kg of 7.7.
